“Also recorded” adds a separate entry of the source.
Tests used:
BK:LINGO2 channels [1] = experiment: Effect of oxidizing/reducing agents on BK:LINGO2 currents (inside-out patch, step to +160 mV); assay type: cell-based, rabbit BKα, human LINGO2; details: 200 μM Ch-T, 100 nM Ca2+
Method: (§1) All excised patch experiments were performed at 37 °C in 140 mM symmetrical K^+ solutions which contained 140 mM KCl, 10 mM glucose, 10 mM Hepes, and either 1 mM ethylene glycol-bis(β-amino ether)-N,N,N′,N′-tetraacetic acid (EGTA (for free [Ca^2+] 100 nM to 300 nM) or 1 mM hydroxyethylethylenediaminetriacetic acid (HEDTA for free [Ca^2+] 1 μM to 10 μM) and the pH of all solutions was adjusted to 7.2 with KOH. These solutions were made with double-distilled, deionized, filtered water from a MilliQ water purification system. The pipette solution contained 100 nM free Ca^2+. We used “Chelator” (https://www.ru.nl/animal/research/chelator/) to calculate the total amount of Ca^2+ required, as per Schoenmakers et al., ([40]) and free Ca^2+ concentrations were checked with a Ca^2+ sensitive electrode.
(§2) During experiments, the dish containing HEK cells was superfused with Hanks solution, which contained (in mM) 129.8 Na^+, 5.8 K^+, 135 Cl^-, 4.17 HCO3^-, 0.34 HPO4^2-, 0.44 H2PO4^-, 1.8 Ca^2+, 0.9 Mg^2+, 0.4 SO4^2-, 10 glucose, 2.9 sucrose, and 10 Hepes, and its pH was adjusted to 7.4 with NaOH. In addition, the patch under study was continuously superfused by means of a close delivery system consisting of a pipette (tip diameter 200 μm) placed approximately 300 μm away from the cell. This could be switched, with a dead-space time of around 5 s, to a solution containing a drug.
(§3) Electrodes were pulled from Corning borosilicate glass (1.5 mm O.D. × 0.86 mm I.D.) using a Sutter P-97 pipette puller and fire polished using a Narashige MF 83 microforge. Pipettes had resistances of 2 to 5 MΩ when filled with recording solutions and series resistance was compensated by up to 80%. Standard single-channel patch clamp recording methods were used. Voltage clamp commands were delivered via an Axopatch 200B patch clamp amplifier (Axon Instruments) connected to a Digidata 1322A AD/DA converter (Axon Instruments) interfaced to computers running pClamp software (Axon Instruments). Data was acquired at 100 KHz and filtered at 2 KHz or 5 KHz. Patches were held at either −60 mV or −100 mV and depolarized in 20 mV increments to 200 mV. Residual capacitance and leakage currents were subtracted using either a P/4 protocol or offline by manual leak subtraction.
(§4) The human LINGO2 transcript used [NM_001354575.2] was untagged in a pcDNA 3.1 vector (VectorBuilder). The α subunit of the rabbit BK channel was isolated from rabbit urethral smooth muscle and cloned using the pcDNA TOPO DNA cloning kit (Life Technologies). The identifiesd transcript corresponded to the ZERO variant of mouse BKα and to variant 2 (NM_002247.3) of human BKα. We used 100 ng ml^−1 cDNA for BKα only transfections, whereas a 100:500 ng ml^−1 cDNA ratio was used for BKα:LINGO2 and BKα:LINGO1 cotransfections for inside-out patch recordings. GFP (150 ng ml^−1) was included in all transfections except those used for Figure 2, C and D. cDNA was transiently transfected into HEK cells using lipofectamine. Site-directed mutagenesis used the Phusion kit (Thermo Fisher Scientific) method ([41]) and all mutations were confirmed by sequencing.
HEK293 cells were cultured in Dulbecco's modified Eagle's medium + MEM media containing 10% fetal bovine serum and 1% Penicillin-Streptomycin antibiotics at 37 °C, and 95% humidifying incubator containing 5% CO2. Subculturing was done by 0.05% Trypsin-EDTA solution.
All data is presented as mean ± SD and was analyzed with Prism software (GraphPad). Individual data points are also shown in bar charts. Statistical differences were assessed using either paired or unpaired nonparametric tests (Wilcoxin signed-rank test, Mann–Whitney test), or the extra sum of squares F-test, as appropriate. Comparisons of three or more nonparametric data sets used Friedman’s test followed by Dunn’s test for multiple comparisons, whereas ANOVA was used for three or more parametric data sets. p < 0.05 was taken as significant.

BKα currents = experiment: Effect of Ch-T on BKα currents in absence of LINGO2 (inside-out patch); assay type: cell-based, rabbit
Method: as §1
During experiments, the dish containing HEK cells was superfused with Hanks solution, which contained (in mM) 129.8 Na^+, 5.8 K^+, 135 Cl^-, 4.17 HCO3^-, 0.34 HPO4^2-, 0.44 H2PO4^-, 1.8 Ca^2+, 0.9 Mg^2+, 0.4 SO4^2-, 10 glucose, 2.9 sucrose, and 10 Hepes, and its pH was adjusted to 7.4 with NaOH. […]
(§5) All data is presented as mean ± SD and was analyzed with Prism software (GraphPad). […] Statistical differences were assessed using either paired or unpaired nonparametric tests (Wilcoxin signed-rank test, Mann–Whitney test), or the extra sum of squares F-test, as appropriate. […]

BK:LINGO2 M605L mutant = experiment: Effect of Ch-T on BK:LINGO2 M605L currents (inside-out patch); assay type: cell-based, rabbit BKα, human LINGO2
Method: as §1, §2, §3
The human LINGO2 transcript used [NM_001354575.2] was untagged in a pcDNA 3.1 vector (VectorBuilder). The α subunit of the rabbit BK channel was isolated from rabbit urethral smooth muscle and cloned using the pcDNA TOPO DNA cloning kit (Life Technologies). […]
as §5

BK:LINGO2 M603L mutant = experiment: Effect of Ch-T on BK:LINGO2 M603L currents (inside-out patch); assay type: cell-based, rabbit BKα, human LINGO2
Method: as §1, §2
Electrodes were pulled from Corning borosilicate glass (1.5 mm O.D. × 0.86 mm I.D.) using a Sutter P-97 pipette puller and fire polished using a Narashige MF 83 microforge. Pipettes had resistances of 2 to 5 MΩ when filled with recording solutions and series resistance was compensated by up to 80%. Standard single-channel patch clamp recording methods were used. […]
as §5

BK:LINGO2 channels [2] = experiment: Effect of Ch-T on BK:LINGO2 currents at different voltages (GV curves); assay type: cell-based, rabbit BKα, human LINGO2
Method: as §1, §2, §3
as §4, with “sequencing. […]” for “sequencing.”
G was derived from peak currents according to Ohm’s law[1] […] Summary data was expressed as the […]. […] For BK constructs, data from each patch was normalized to the peak conductance measured in either 1 μM or 10 μM Ca^2+ to obtain Gmax, and curves were constrained to the Gmax value obtained in this. […]

BKα:LINGO2 = experiment: Effect of Ch-T on steady-state voltage-dependent inactivation (double pulse protocol); assay type: cell-based, rabbit BKα, human LINGO2; details: 200 μM Chloramine-T, 2 min, 100 nM Ca2+, control inactivation V1/2 36±5 mV, n = 6
Method: All excised patch experiments were performed at 37 °C in 140 mM symmetrical K^+ solutions which contained 140 mM KCl, 10 mM glucose, 10 mM Hepes, and either 1 mM ethylene glycol-bis(β-amino ether)-N,N,N′,N′-tetraacetic acid (EGTA (for free [Ca^2+] 100 nM to 300 nM) or 1 mM hydroxyethylethylenediaminetriacetic acid (HEDTA for free [Ca^2+] 1 μM to 10 μM) and the pH of all solutions was adjusted to 7.2 with KOH. These solutions were made with double-distilled, deionized, filtered water from a MilliQ water purification system. The pipette solution contained 100 nM free Ca^2+. We used “Chelator” (https://www.ru.nl/animal/research/chelator/) to calculate the total amount of Ca^2+ required, as per Schoenmakers et al., ([40]) and free Ca^2+ concentrations were checked with a Ca^2+ sensitive electrode. […]
Inactivation curves were fitted with a similar Boltzmann function:[3] I/Imax=1/{1+exp[±(V1/2−Vc)/K]} where, I was the current recorded at the test step, Imax was the maximal current recorded, Vc was the conditioning potential (see RESULTS), and K was the slope factor.
as §5

## Cc1ccc(S(=O)(=O)NCl)cc1 [Ch-T, Chloramine T]
BK:LINGO2 channels [1]
  Effect on BK:LINGO2 inactivation: caused rapid abolition of inactivation; also recorded: maintained for the duration of the recording, despite the removal of the oxidizing agent; also recorded: completely abolished inactivation and also increased peak current amplitude; also recorded: inactivation was clearly abolished
BK:LINGO2 channels [1]; listed as chloramine-T
  Effect on BK:LINGO2 inactivation: abolished inactivation
BK:LINGO2 channels [1]; 60 s, last 5 ms, control 11 ± 8%, n = 7, p < 0.05, mean ± SD
  Sustained current amplitude, % of peak current, after 60 s Ch-T: 59 ± 39%
BK:LINGO2 channels [1]; 120 s, last 5 ms, control 11 ± 8%, n = 7, p < 0.05, mean ± SD
  Sustained current amplitude, % of peak current, after 120 s Ch-T: 130 ± 19%
BK:LINGO2 channels [1]; 120 s, p < 0.05, n = 7, mean ± SD
  Increase of peak current amplitude compared to control: 35 ± 31%
BKα currents; 200 μM Ch-T, up to 210 s, +160 mV, 100 nM Ca2+, n = 4-5, p = 0.43 (not significant)
  Increase of BKα current amplitude: 21 ± 27%
BKα currents; Ch-T, 4-min application, n = 4 to 5, p = 0.43
  Effect on BKα current amplitude: failed to significantly increase the BKα current amplitude
BK:LINGO2 M605L mutant; M605L vs WT, p < 0.001, Mann-Whitney test
  Ch-T effectiveness reduction compared to WT BK:LINGO2 currents: ~50 % less effective
BK:LINGO2 M605L mutant; M605L, 200 μM Ch-T, 60 s + additional 90 s, 100 nM Ca2+, +160 mV, control 6 ± 4%, p < 0.01
  Sustained current, % of peak current amplitude, after an additional 90 s Ch-T: 47 ± 25%
BK:LINGO2 M605L mutant; M605L, 200 μM Ch-T, 60 s, 100 nM Ca2+, +160 mV, control 6 ± 4%, n = 10, p < 0.01
  Sustained current, % of peak current amplitude, after 60 s Ch-T: 15 ± 14%
BK:LINGO2 M605L mutant; M605L, 200 μM Ch-T, 210 s, 100 nM Ca2+, +160 mV
  Sustained current, % of peak current amplitude, at end of 210 s application: ~50%
BK:LINGO2 M603L mutant; 200 μM Ch-T, 60 s, 100 nM Ca2+, +160 mV, control 10 ± 9%, n = 9, p < 0.05
  Sustained current after 60 s Ch-T: 17 ± 9%
BK:LINGO2 M603L mutant; 200 μM Ch-T, 150 s, 100 nM Ca2+, +160 mV, control 10 ± 9%, n = 9, p < 0.05
  Sustained current after 150 s Ch-T: 20 ± 12%
BK:LINGO2 M603L mutant; Ch-T, 7 to 9 patches
  Sustained current during Ch-T (summary in figure legend): ~20%
BK:LINGO2 channels [2]; 100 nM Ca2+, -100 to +200 mV
  Inactivation after Ch-T, family of voltages: inactivation was practically abolished; also recorded: increased current amplitude and practically abolished inactivation
BK:LINGO2 channels [2]; 100 nM Ca2+, Ch-T 2 min, before Ch-T 128 ± 3 mV, n = 7, Boltzmann fit
  Half maximal activation voltage V1/2 after Ch-T: 86 ± 11 mV
BK:LINGO2 channels [2]; 10 μM Ca2+, 200 μM Ch-T, -100 to +200 mV
  Inactivation and current amplitude after Ch-T, family of voltages: the current amplitude was increased at all voltages recorded, and inactivation was practically abolished
BK:LINGO2 channels [2]; 10 μM Ca2+, -60 mV, 200 μM Ch-T, before 0.06 ± 0.02, n = 6, p < 0.05
  G/Gmax at -60 mV in Ch-T: 0.48 ± 0.27
BK:LINGO2 channels [2]; Ch-T in 10 μM Ca2+
  Open probability of BK:LINGO2 channels / conductance: large increases in G across the voltage range; also recorded: increased the G/Gmax at all voltages; also recorded: significantly increased the open probability of BK:LINGO2 channels
BKα:LINGO2
  Steady-state voltage-dependent inactivation after Ch-T: no time- or voltage-dependent inactivation was observed
BKα:LINGO2; listed as Chloramine-T
  Steady-state voltage-dependent inactivation after Ch-T: compl etel y abol i shed

Reference: publication PMC10020666, “Oxidation modulates LINGO2-induced inactivation of large conductance, Ca^2+-activated potassium channels” (The Journal of Biological Chemistry, 2023)
